Tested on: green peach aphid
Experiment: Field test of green peach aphid: dsRNA spray compared with imidacloprid
Format: in vivo, Myzus persicae
Conditions: dsRNA 300 ng/μl in water, 300 μl per plant, imidacloprid 10,000 times solution
Description: Control effect (%)=(1−CK0×PT1/CK1×PT0)×100
wherein PT0: the number of insects before drug administration in the treatment area; PT1: the number of insects after drug administration in the treatment area; • CK0: the number of insects before drug administration in the control area; CK1: the number of insects after drug administration in the control area.
the dropping rate of insect population (%)=[(number of insects before drug administration−number of insects after drug administration)/number of insects before drug administration]×100
1. Radish seedlings of 12-15 days, inoculated with 100 insects, stabilized for 1 day, sprayed with dsRNA the next day.
2. The concentration of dsRNA used for spraying was 300 ng/μl. The synthesized dsRNA was dissolved in water and sprayed 300 μl per plant.
3. The concentration of imidacloprid was 10,000 times solution (Germany Bayer Emerald 70% imidacloprid 3 g, water dispersible granules), sprayed 300 μl per plant.
4. The experiment method: spray treatment, 4 replicates for each treatment.

O=[N+]([O-])NC1=NCCN1Cc1ccc(Cl)nc1 [Imidacloprid, imidacloprid]
Field test of green peach aphid: Control effect, 1 d (1 d): 70.96 ± 4.25 Cc %
Field test of green peach aphid: the dropping rate of insect population, 1 d (1 d, radish seedlings, 100 insects): 37.33 ± 9.65 Bb %
Field test of green peach aphid: Control effect, 3 d (3 d): 93.78 ± 3.14 Cb %
Field test of green peach aphid: the dropping rate of insect population, 3 d (3 d, radish seedlings, 100 insects): 75.83 ± 15.25 Bb %
Field test of green peach aphid: Control effect, 5 d (5 d): 97.37 ± 1.88 Bb %
Field test of green peach aphid: the dropping rate of insect population, 5 d (5 d, radish seedlings, 100 insects): 84.35 ± 9.60 Bb %

— US20210139902A1, “RNAI TARGET GENE THAT IS HIGHLY LETHAL TO APHIDS AND USE THEREOF” (CAS Center For Excellence in Molecular Plant Sciences, priority 2018, published 2021)
